Usually half-life stands for the time needed for the level to fall by half in the phase considered.

The test system of data set [1] is HEK293. The experiment in a line: Cytotoxicity against HEK293 […] cells non-expressing alphavbeta3 integrin up to 50 uM after 24 hrs by XTT assay. The data set is classed as cell-based. The settings on record: human, hek293, 24 h. (Tetrazolium dyes change colour on reduction, which living cells bring about.)
Data set [2] has as its system NCI-H1299. The experiment in a line: Cytotoxicity against human H1299 cells overexpressing alphavbeta3 integrin at up to 50 uM after 24 hrs by XTT assay. It counts as functional, cell-based.
A short description of data set [3]: Chemical stability of the compound at pH 7.4 assessed as half life by LC-MS analysis. It counts as physicochemical. Particulars: buffer.
Data set [4] in a line: Chemical stability of the compound at pH 5.2 assessed as half life by LC-MS analysis. The settings on record: buffer. The data set is classed as physicochemical.
Data set [5] can be described thus: Half life in mouse liver homogenates by LC-MS analysis. It counts as ADME, tissue-based. Particulars: liver homogenate.
Data set [6] has as its system B16-F10. The experiment in a line: Cytotoxicity against mouse B16F10 cells overexpressing alphavbeta3 integrin up to 50 uM after 24 hrs by XTT assay. It counts as functional, cell-based.
In data set [7] the test system is NCI-H1299. The experiment in a line: Cytotoxicity against human H1299 cells overexpressing alphavbeta3 integrin at >50 uM after 24 hrs by XTT assay. The data set is classed as functional, cell-based.
Data set [8] relates to B16-F10. The experiment in a line: Cytotoxicity against mouse B16F10 cells overexpressing alphavbeta3 integrin at 50 to 100 uM after 24 hrs by XTT assay. It counts as functional, cell-based.
The subject of data set [9] is Liver. The experiment in a line: Drug metabolism in mouse liver homogenates assessed as time duration for drug release at 37 degC by LC-MS analysis. The data set is classed as ADME, tissue-based. Particulars: tissue homogenate.
Data set [10] relates to Liver. The experiment in a line: Drug metabolism in mouse liver homogenates assessed as half life for drug release at 37 degC by LC-MS analysis. It counts as ADME, tissue-based. The settings on record: tissue homogenate.
Data set [11] deals with HEK293. The experiment in a line: Cytotoxicity against HEK293 […] cells non-expressing alphavbeta3 integrin after 24 hrs by XTT assay. It counts as cell-based. The settings on record: human, hek293, 24 h.

Structures are written as SMILES. Activity calls are given as the source filed them.

Take `CC[C@@]1(O)C(=O)OCc2c1cc1n(c2=O)Cc2cc3ccccc3nc2-1` [CAMPTOTHECIN]: the Activity entry with HEK293 [1] is “Toxic”. Besides, the result in the data set with NCI-H1299 [2] and with B16-F10 [6] was Active. For the same molecule, the half-life is < 5760 min in data set [3], < 5760 min in data set [4] and 105 min in data set [5].

For `N=C(N)NCCC[C@@H]1NC(=O)[C@H](CCCCNC(=O)CCCc2ccc(N(CCCl)CCCl)cc2)NC(=O)[C@@H](Cc2ccccc2)NC(=O)[C@H](CC(=O)O)NC(=O)CNC1=O`, the outcome with NCI-H1299 [7] and in the data set with B16-F10 [8] was Active. The half-life in [3] and in [4] was < 720 min throughout. In addition, in the data set with Liver [9], the Drug metabolism result is “metabolite_notdetected”.

`O=C(O)CCCc1ccc(N(CCCl)CCCl)cc1` [CHLORAMBUCIL]: the half-life in data set [3] is 200 min; in data set [4], 200 min; in [5], 60 min.

Take `CC[C@@]1(OC(=O)NCCCC[C@@H]2NC(=O)[C@@H](Cc3ccccc3)NC(=O)[C@H](CC(=O)O)NC(=O)CNC(=O)[C@H](CCCNC(=N)N)NC2=O)C(=O)OCc2c1cc1n(c2=O)Cc2cc3ccccc3nc2-1`: the half-life in [3] and in data set [4] was > 5760 min throughout. Moreover, the t1/2 with Liver [10] was determined as 5 min. Also, the Time in the data set with Liver [9] is given as 10 min.

Consider `N=C(N)NCCC[C@@H]1NC(=O)[C@H](COC(=O)CCCc2ccc(N(CCCl)CCCl)cc2)NC(=O)[C@@H](Cc2ccccc2)NC(=O)[C@H](CC(=O)O)NC(=O)CNC1=O`, for which the result in the data set on NCI-H1299 [7] and with B16-F10 [8] was Active. In addition, the Activity entry in the data set with HEK293 [11] is given as “Toxic”. Also, the half-life in data set [3] and in data set [4] was < 720 min throughout. For the same molecule, in the data set on Liver [10], the t1/2 amounted to 5 min. In addition, in the data set on Liver [9], the Time was determined as 45 min.
